{"source": "paper PMC4133868", "about": "(BMB Reports, 2013)", "key": {"t-bCblC [1]": {"biological_target": "T1, t-bCblC (Bos taurus, UniProt Q5E9C8)", "T1 sequence (Q5E9C8 1-244)": "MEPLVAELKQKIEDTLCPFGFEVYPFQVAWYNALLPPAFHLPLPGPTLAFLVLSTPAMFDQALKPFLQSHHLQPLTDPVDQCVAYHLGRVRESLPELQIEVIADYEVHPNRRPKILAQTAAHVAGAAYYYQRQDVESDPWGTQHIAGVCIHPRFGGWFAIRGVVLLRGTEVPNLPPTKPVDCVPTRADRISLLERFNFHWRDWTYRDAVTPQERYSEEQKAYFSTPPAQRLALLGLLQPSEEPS"}, "t-bCblC [2]": {"biological_target": "T1, t-bCblC", "experiment": "biochemical"}, "t-bCblC [3]": {"biological_target": "T1, t-bCblC", "experiment": "Isothermal titration calorimetry", "format": "binding, bovine"}, "f-bCblC [4]": {"biological_target": "T2, f-bCblC (Bos taurus, UniProt Q5E9C8)", "T2 sequence (Q5E9C8 1-280)": "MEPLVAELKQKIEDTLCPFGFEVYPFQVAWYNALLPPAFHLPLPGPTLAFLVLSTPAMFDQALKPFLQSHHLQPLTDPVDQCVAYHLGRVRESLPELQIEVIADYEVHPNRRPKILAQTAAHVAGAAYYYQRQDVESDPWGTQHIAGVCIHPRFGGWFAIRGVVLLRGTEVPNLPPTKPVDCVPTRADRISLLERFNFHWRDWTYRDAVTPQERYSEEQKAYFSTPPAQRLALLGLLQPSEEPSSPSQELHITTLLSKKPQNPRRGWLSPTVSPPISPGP", "conditions": "read-out: Kd of GSH for f-bCblC (ITC); cited from earlier work"}, "f-bCblC [5]": {"biological_target": "T2, f-bCblC"}, "f-bCblC [6]": {"biological_target": "T2, f-bCblC", "experiment": "biochemical"}, "[7]": {"conditions": "hyperbolic fit of ΔTm vs GSH concentration"}}, "data": [{"smiles": "N[C@@H](CCC(=O)N[C@@H](CS)C(=O)NCC(=O)O)C(=O)O", "note": "[GSH, glutathione]", "values": [{"measurement": "melting temperature Tm of t-bCblC in the presence of GSH", "setting": "t-bCblC [1]; 10 mM GSH, Tm without GSH 41.5 ± 0.3℃", "value": "45.2 ± 0.3", "unit": "°C"}, {"measurement": "maximal ΔTm (ΔTm max) of t-bCblC", "setting": "t-bCblC [1]; [7]", "value": "5.2 ± 0.2", "unit": "°C"}, {"measurement": "AC50", "setting": "t-bCblC [2]", "value": "2.8 ± 0.3", "unit": "mM"}, {"measurement": "Kd", "setting": "t-bCblC [3]", "value": "0.206 ± 0.035", "unit": "mM"}, {"measurement": "Kd", "setting": "f-bCblC [4]", "value": "0.355 ± 0.04", "unit": "mM"}, {"measurement": "melting temperature Tm of f-bCblC in the presence of GSH", "setting": "f-bCblC [5]; 10 mM GSH, Tm without GSH 42.1 ± 0.4℃", "value": "44.2 ± 0.3", "unit": "°C"}, {"measurement": "maximal ΔTm (ΔTm max) of f-bCblC", "setting": "f-bCblC [5]; [7]", "value": "2.8 ± 0.3", "unit": "°C"}, {"measurement": "AC50", "setting": "f-bCblC [6]", "value": "3.1 ± 0.3", "unit": "mM"}]}]}
